Source: US20230139445A1, “BACTERIAL CELLS WITH IMPROVED TOLERANCE TO DIACIDS” (priority 2016, published 2023)

Tests used:
[1] = system: Escherichia coli K-12 MG1655 evolved isolates and knockout mutants; assay: Biolector growth screening of evolved isolates and reconstructed (knockout) mutants in glutaric or adipic acid; type: cell-based
Experimental: Biological triplicate cultures of each strain were grown to saturation overnight in 96 well deepwell plates containing 300 μL M9+1% glucose. The next day, cells were diluted 1:10 in deionized water in a clear 96 well plate and the OD600 was measured on a BioTek plate reader. 48 well FlowerPlates containing a final volume of 1.4 mL of M9+1/o glucose (plus relevant chemical) were inoculated to OD600 0.03 (with plate reader pathlength, 200 μL volume) with the overnight culture and sealed with Breathseal film. Light backscatter intensity was monitored in a Biolector microbioreactor system at 37° C. with 1000 rpm shaking.
Each re-sequenced isolate was characterized using the Biolector system for growth at the screening concentration of chemical (47.5 g/L glutaric acid or 50 g/L adipic acid) in biological triplicates.

[2] = system: Escherichia coli K-12 MG1655 knockout mutants; assay: Growth Profiler growth screening of K-12 MG1655 single, double and triple knockout mutants in glutaric or adipic acid; type: cell-based; settings: M9 + 47.5 g/L glutarate (neutralized)
Experimental: Five colonies from wild-type K-12 MG1655 and 10 individual colonies deriving from each population were inoculated into 300 μL M9+1% glucose in 96 well deepwell plates and incubated in a 300 rpm plate shaker at 37° C. The next day, cells were diluted 10× in M9+1% glucose and 30 μL was transferred into clear-bottomed 96 well half-deepwell plates (with rectangular wells) containing M9+1% glucose and M9+1% glucose+52.78 g/L glutaric acid or 55.56 g/L adipic acid, such that the final concentration of glutaric acid or adipic acid was 47.5 g/L or 50 g/L, respectively. In addition, cryogenic glycerol stocks of the overnight culture were saved in a 96 well plate format. Half deepwell plates were incubated at 37° C. with 225 rpm shaking in a Growth Profiler (Enzyscreen), with optical scans of the plates taken at 15 minute intervals. Green pixel values integrated over a 1 mm diameter circular area in each well were converted to OD600 values using a previously determined calibration between OD600 and green pixel values. […] In general, it was attempted to select three isolates per population for further analysis, and all populations were represented in the resequenced isolates.
Selected isolates from the primary screen were restruck onto LB agar from the cryogenic stock made from the overnight culture plate for the primary screen. Five K-12 MG1655 colonies and three individual colonies from each isolate were inoculated as biological replicates into a new 96 well deepwell plate containing 300 μL of M9+1% glucose, and grown overnight as for the primary screen. The next day, a cryogenic stock and half deepwell plates containing M9+1% glucose with or without glutaric acid or adipic acid were inoculated using the plate of overnight cultures, and growth was measured as described for the primary screen.
Probable important losses-of-function were determined by identifying genes across all isolates that harboured mutations, especially those occurring in multiple populations, and by the presence of at least one mutation that either generated a premature stop codon, a frameshift mutation, or the presence of an insertion element sequence within the gene. For those genes, the corresponding knockout strain from the Keio collection of single knockout mutants (where each gene is replaced with a cassette consisting of a kanamycin resistance gene flanked by FRT sites) was used as a donor strain for P1vir phage transduction. Briefly, the Keio strain was grown to early exponential phase in LB+5 mM CaCl2 and 80 μL of a P1vir stock raised on K-12 MG1655 was added. After significant lysis was observed after 1.5 to 2 hours, the lysate was filter-sterilized to remove cells and stored at 4° C. Strain K-12 MG1655 was grown overnight in LB+5 mM CaCl2) and 100 μL of the overnight culture was mixed with 100 μL of the P1vir lysate of the Keio collection mutant, and the mixture was incubated at 37° C. without shaking for 20 minutes. The entire mixture was then plated on LB agar containing 1.25 mM sodium pyrophosphate as a chelating agent and 25 μg/mL kanamycin. One colony was then restruck on LB+1.25 mM […]+25 μg/mL kanamycin plate and analyzed for presence of the Keio cassette in place of the wild-type gene by colony PCR. When further knockouts were constructed in the same strain, the Keio cassette was flipped out to generate a scar sequence such that Kan^R marker could be recycled. […]

[3] = strain GLUT1-3, M9 + 47.5 g/L glutaric acid (neutralized with sodium hydroxide)
[4] = strain GLUT1-3, M9 + 47.5 g/L glutaric acid (neutralized), knockout experiment (Table 14)
[5] = strain GLUT1-9, M9 + 47.5 g/L glutaric acid (neutralized with sodium hydroxide)
[6] = strain GLUT1-10, M9 + 47.5 g/L glutaric acid (neutralized with sodium hydroxide)
[7] = strain GLUT1-10, M9 + 47.5 g/L glutaric acid (neutralized), knockout experiment (Table 14)
[8] = strain GLUT2-1, M9 + 47.5 g/L glutaric acid (neutralized with sodium hydroxide)
[9] = strain GLUT2-9, M9 + 47.5 g/L glutaric acid (neutralized with sodium hydroxide)
[10] = strain GLUT2-10, M9 + 47.5 g/L glutaric acid (neutralized with sodium hydroxide)
[11] = strain GLUT3-5, M9 + 47.5 g/L glutaric acid (neutralized with sodium hydroxide)
[12] = strain GLUT3-7, M9 + 47.5 g/L glutaric acid (neutralized with sodium hydroxide)
[13] = strain GLUT3-9, M9 + 47.5 g/L glutaric acid (neutralized with sodium hydroxide)
[14] = strain GLUT4-1, M9 + 47.5 g/L glutaric acid (neutralized with sodium hydroxide)
[15] = strain GLUT4-1, M9 + 47.5 g/L glutaric acid (neutralized), knockout experiment (Table 14)
[16] = strain GLUT4-4, M9 + 47.5 g/L glutaric acid (neutralized with sodium hydroxide)
[17] = strain GLUT4-10, M9 + 47.5 g/L glutaric acid (neutralized with sodium hydroxide)
[18] = strain GLUT5-4, M9 + 47.5 g/L glutaric acid (neutralized with sodium hydroxide)
[19] = strain GLUT5-5, M9 + 47.5 g/L glutaric acid (neutralized with sodium hydroxide)
[20] = strain GLUT6-4, M9 + 47.5 g/L glutaric acid (neutralized with sodium hydroxide)
[21] = strain GLUT6-5, M9 + 47.5 g/L glutaric acid (neutralized with sodium hydroxide)
[22] = strain GLUT6-10, M9 + 47.5 g/L glutaric acid (neutralized with sodium hydroxide)
[23] = strain GLUT7-2, M9 + 47.5 g/L glutaric acid (neutralized with sodium hydroxide)
[24] = strain GLUT7-6, M9 + 47.5 g/L glutaric acid (neutralized with sodium hydroxide)
[25] = strain GLUT7-7, M9 + 47.5 g/L glutaric acid (neutralized with sodium hydroxide)
[26] = strain GLUT8-5, M9 + 47.5 g/L glutaric acid (neutralized with sodium hydroxide)
[27] = strain GLUT8-6, M9 + 47.5 g/L glutaric acid (neutralized with sodium hydroxide)
[28] = strain GLUT8-6, M9 + 47.5 g/L glutaric acid (neutralized), knockout experiment (Table 14)
[29] = strain GLUT8-9, M9 + 47.5 g/L glutaric acid (neutralized with sodium hydroxide)
[30] = strain MG1655, M9 + 47.5 g/L glutaric acid (neutralized with sodium hydroxide)
[31] = strain MG1655, M9 + 47.5 g/L glutaric acid (neutralized), knockout experiment (Table 14)
[32] = strain MG1655 kgtP::kan, M9 + 47.5 g/L glutaric acid (neutralized)
[33] = strain MG1655 proV::kan, M9 + 47.5 g/L glutaric acid (neutralized)
[34] = strain MG1655 ybjL::kan, M9 + 47.5 g/L glutaric acid (neutralized)
[35] = strain MG1655 ΔkgtP proV::kan, M9 + 47.5 g/L glutaric acid (neutralized)
[36] = strain MG1655 ΔkgtP sspA::kan, M9 + 47.5 g/L glutaric acid (neutralized)
[37] = strain MG1655 ΔkgtP ybjL::kan, M9 + 47.5 g/L glutaric acid (neutralized)
[38] = strain MG1655 ΔkgtP ΔproV ybjL::kan, M9 + 47.5 g/L glutaric acid (neutralized)

Compound: O=C(O)CCCC(=O)O [glutaric acid]
- mean growth rate μ [1, 3]: 0.304 h⁻¹
- mean lag time tlag [1, 3]: 5.1 h
- mean growth rate μ [1, 4]: 0.278 h⁻¹
- mean lag time tlag [1, 4]: 4.6 h
- mean growth rate μ [1, 5]: 0.319 h⁻¹
- mean lag time tlag [1, 5]: 6.4 h
- mean growth rate μ [1, 6]: 0.458 h⁻¹
- mean lag time tlag [1, 6]: 11.3 h
- mean growth rate μ [1, 7]: 0.442 h⁻¹
- mean lag time tlag [1, 7]: 10.8 h
- mean growth rate μ [1, 8]: 0.276 h⁻¹
- mean lag time tlag [1, 8]: 6.8 h
- mean growth rate μ [1, 9]: 0.298 h⁻¹
- mean lag time tlag [1, 9]: 6.5 h
- mean growth rate μ [1, 10]: 0.378 h⁻¹
- mean lag time tlag [1, 10]: 6.5 h
- mean growth rate μ [1, 11]: 0.284 h⁻¹
- mean lag time tlag [1, 11]: 5.6 h
- mean growth rate μ [1, 12]: 0.277 h⁻¹
- mean lag time tlag [1, 12]: 5.6 h
- mean growth rate μ [1, 13]: 0.324 h⁻¹
- mean lag time tlag [1, 13]: 8.3 h
- mean growth rate μ [1, 14]: 0.279 h⁻¹
- mean lag time tlag [1, 14]: 6.2 h
- mean growth rate μ [1, 15]: 0.312 h⁻¹
- mean lag time tlag [1, 15]: 7.1 h
- mean growth rate μ [1, 16]: 0.287 h⁻¹
- mean lag time tlag [1, 16]: 6.6 h
- mean growth rate μ [1, 17]: 0.297 h⁻¹
- mean lag time tlag [1, 17]: 6.9 h
- mean growth rate μ [1, 18]: 0.438 h⁻¹
- mean lag time tlag [1, 18]: 17.0 h
- mean growth rate μ [1, 19]: 0.349 h⁻¹
- mean lag time tlag [1, 19]: 14.5 h
- mean growth rate μ [1, 20]: 0.277 h⁻¹
- mean lag time tlag [1, 20]: 5.9 h
- mean growth rate μ [1, 21]: 0.300 h⁻¹
- mean lag time tlag [1, 21]: 6.5 h
- mean growth rate μ [1, 22]: 0.341 h⁻¹
- mean lag time tlag [1, 22]: 6.7 h
- mean growth rate μ [1, 23]: 0.318 h⁻¹
- mean lag time tlag [1, 23]: 6.6 h
- mean growth rate μ [1, 24]: 0.318 h⁻¹
- mean lag time tlag [1, 24]: 7.1 h
- mean growth rate μ [1, 25]: 0.283 h⁻¹
- mean lag time tlag [1, 25]: 7.8 h
- mean growth rate μ [1, 26]: 0.322 h⁻¹
- mean lag time tlag [1, 26]: 6.2 h
- mean growth rate μ [1, 27]: 0.347 h⁻¹
- mean lag time tlag [1, 27]: 7.1 h
- mean growth rate μ [1, 28]: 0.402 h⁻¹
- mean lag time tlag [1, 28]: 7.8 h
- mean growth rate μ [1, 29]: 0.345 h⁻¹
- mean lag time tlag [1, 29]: 7.4 h
- mean growth rate μ [1, 30]: 0.103 h⁻¹
- mean lag time tlag [1, 30]: 10.7 h
- mean growth rate μ [1, 31]: 0.100 h⁻¹
- mean lag time tlag [1, 31]: 10.4 h
- mean growth rate μ [1, 32]: 0.181 h⁻¹
- mean lag time tlag [1, 32]: 5.8 h
- mean growth rate μ [1, 33]: 0.085 h⁻¹
- mean lag time tlag [1, 33]: 0.6 h
- mean growth rate μ [1, 34]: 0.126 h⁻¹
- mean lag time tlag [1, 34]: 12.8 h
- mean growth rate μ [1, 35]: 0.244 h⁻¹
- mean lag time tlag [1, 35]: 6.5 h
- mean growth rate μ [1, 36]: 0.256 h⁻¹
- mean lag time tlag [1, 36]: 5.7 h
- mean growth rate μ [1, 37]: 0.213 h⁻¹
- mean lag time tlag [1, 37]: 6.0 h
- mean growth rate μ [1, 38]: 0.300 h⁻¹
- mean lag time tlag [1, 38]: 7.0 h
- mean lag time tlag ([2]; strain MG1655 ΔkgtP proV::kan): 13.0 h
- mean growth rate μ ([2]; strain MG1655 ΔkgtP sspA::kan): 0.225 h⁻¹
